Data: BindingDB's records for doi:10.7270/Q2CV4KX9 (n/a, 1995)

Experiment: Binding affinity was measured by its ability to displace [3H]CCK-8S from CCK-B receptor in guinea pig brain

SMILES | Ki
CC(C)CCN1C(=O)C(NC(=O)Nc2ccccc2)C(=O)N(c2ccccc2)c2cc(F)ccc21 (stereo not given) | 224 nM
CC(C)CCN1C(=O)C(NC(=O)Nc2ccccc2)C(=O)N(c2ccccc2)c2cc(Cl)ccc21 (stereo not given) | 955 nM
CC(C)CCN1C(=O)C(NC(=O)Nc2ccccc2)C(=O)N(c2ccccc2)c2ccc(F)cc21 (stereo not given) | < 1000 nM
CC(C)CCN1C(=O)C(NC(=O)Nc2ccccc2)C(=O)N(c2ccccc2)c2cc(Cl)c(Cl)cc21 (stereo not given) | 1580 nM
CC(C)CCN1C(=O)C(NC(=O)Nc2ccccc2)C(=O)N(c2ccccc2)c2ccc(Cl)cc21 (stereo not given) | 955 nM
